ChEMBL document CHEMBL3885881, “DrugMatrix”

Species: Rattus norvegicus
Experiment: DrugMatrix - Regimen: Daily Repeat
Assay type: toxicity, organism-based, Sprague-Dawley
Parameters: regimen Daily Repeat, gender Male, age 6-8 weeks
Conditions: in vivo, po, route oral GAVAGE, vehicle .5 % CMC; for ABSOLUTE BASOPHIL / ABSOLUTE EOSINOPHIL / ABSOLUTE LYMPHOCYTE / ABSOLUTE MONOCYTE / ABSOLUTE SEGMENTED NEUTROPHIL / BASOPHIL / EOSINOPHIL / ERYTHROCYTE COUNT / HEMATOCRIT / HEMOGLOBIN / LEUKOCYTE COUNT / LYMPHOCYTE / MEAN CORPUSCULAR HEMOGLOBIN / MEAN CORPUSCULAR HEMOGLOBIN CONCENTRATION / MEAN CORPUSCULAR VOLUME / MONOCYTE / NEUTROPHIL / NUCLEATED RED BLOOD CELLS / PLATELET COUNT: tissue Blood; for ALANINE AMINOTRANSFERASE / ALBUMIN / ALKALINE PHOSPHATASE / ASPARTATE AMINOTRANSFERASE / BLOOD UREA NITROGEN / CARBON DIOXIDE / CHLORIDE / CHOLESTEROL / CREATINE PHOSPHOKINASE / CREATININE / GLUCOSE / LACTATE DEHYDROGENASE / LIPASE / PHOSPHORUS / POTASSIUM / SODIUM / TOTAL BILIRUBIN / TOTAL PROTEIN / URIC ACID: tissue Plasma
[1] = 580 mg/kg, 120 h, dose level High, time 5 day
[2] = […], 72 h, dose 2.4 mg/Kg, dose level Low, time 3 day
[3] = […], 120 h, dose 2.4 mg/Kg, dose level Low, time 5 day

Q: What does the source list for `CN1C(=O)COc2c(C(=O)NC3CN4CCC3CC4)cc(Cl)cc21` (centres undefined) [AZASETRON]?
A: ABSOLUTE BASOPHIL [1]: 0 CELLS/uL; ABSOLUTE EOSINOPHIL [1]: 63.33 CELLS/uL; ABSOLUTE LYMPHOCYTE [1]: 14100 CELLS/uL; ABSOLUTE MONOCYTE [1]: 291 CELLS/uL; ABSOLUTE SEGMENTED NEUTROPHIL [1]: 979 CELLS/uL; BASOPHIL [1]: 0%; EOSINOPHIL [1]: 0.33%; ERYTHROCYTE COUNT [1]: 6.34 x10E6/uL; HEMATOCRIT [1]: 38%; HEMOGLOBIN [1]: 15.07 G/DL; LEUKOCYTE COUNT [1]: 15.43 x10E3/uL; LYMPHOCYTE [1]: 91.67%; MEAN CORPUSCULAR HEMOGLOBIN [1]: 23.8 pg; MEAN CORPUSCULAR HEMOGLOBIN CONCENTRATION [1]: 39.67 G/DL; MEAN CORPUSCULAR VOLUME [1]: 60 fL; MONOCYTE [1]: 2%; NEUTROPHIL [1]: 6%; NUCLEATED RED BLOOD CELLS [1]: 0 /100WBC; PLATELET COUNT [1]: 1316.67 x10E3/uL; ALANINE AMINOTRANSFERASE [1]: 58.33 u/L; ALBUMIN [1]: 4.3 G/DL; ALKALINE PHOSPHATASE [1]: 295 u/L; ASPARTATE AMINOTRANSFERASE [1]: 101.33 u/L; BLOOD UREA NITROGEN [1]: 21.67 mg/dL; CARBON DIOXIDE [1]: 24 mmol/L; CHLORIDE [1]: 100.67 MEQ/L; CHOLESTEROL [1]: 74.33 mg/dL; CREATINE PHOSPHOKINASE [1]: 955.33 u/L; CREATININE [1]: 0.23 mg/dL; GLUCOSE [1]: 160 mg/dL; LACTATE DEHYDROGENASE [1]: 604.33 u/L; LIPASE [1]: 10.33 u/L; PHOSPHORUS [1]: 12.33 mg/dL; POTASSIUM [1]: 6.37 MEQ/L; SODIUM [1]: 144.33 MEQ/L; TOTAL BILIRUBIN [1]: 0.2 mg/dL; TOTAL PROTEIN [1]: 6.2 G/DL; URIC ACID [1]: 2.43 mg/dL; ABSOLUTE BASOPHIL [2]: 0 CELLS/uL; ABSOLUTE EOSINOPHIL [2]: 0 CELLS/uL; ABSOLUTE LYMPHOCYTE [2]: 13884.67 CELLS/uL; ABSOLUTE MONOCYTE [2]: 148 CELLS/uL; ABSOLUTE SEGMENTED NEUTROPHIL [2]: 1867.33 CELLS/uL; BASOPHIL [2]: 0%; EOSINOPHIL [2]: 0%; ERYTHROCYTE COUNT [2]: 5.62 x10E6/uL; HEMATOCRIT [2]: 34.23%; HEMOGLOBIN [2]: 13.3 G/DL; LEUKOCYTE COUNT [2]: 15.9 x10E3/uL; LYMPHOCYTE [2]: 87.33%; MEAN CORPUSCULAR HEMOGLOBIN [2]: 23.7 pg; MEAN CORPUSCULAR HEMOGLOBIN CONCENTRATION [2]: 38.87 G/DL; MEAN CORPUSCULAR VOLUME [2]: 60.97 fL; MONOCYTE [2]: 1%; NEUTROPHIL [2]: 11.67%; NUCLEATED RED BLOOD CELLS [2]: 0 /100WBC; PLATELET COUNT [2]: 1219.67 x10E3/uL; ALANINE AMINOTRANSFERASE [2]: 63.67 u/L; ALBUMIN [2]: 4.13 G/DL; ALKALINE PHOSPHATASE [2]: 374.67 u/L; ASPARTATE AMINOTRANSFERASE [2]: 87.33 u/L; BLOOD UREA NITROGEN [2]: 18.33 mg/dL; CARBON DIOXIDE [2]: 30.67 mmol/L; CHLORIDE [2]: 98.33 MEQ/L; CHOLESTEROL [2]: 73 mg/dL; CREATINE PHOSPHOKINASE [2]: 308.67 u/L; CREATININE [2]: 0.17 mg/dL; GLUCOSE [2]: 148.33 mg/dL; LACTATE DEHYDROGENASE [2]: 222 u/L; LIPASE [2]: 10 u/L; PHOSPHORUS [2]: 11.57 mg/dL; POTASSIUM [2]: 6.45 MEQ/L; SODIUM [2]: 141.9 MEQ/L; TOTAL BILIRUBIN [2]: 0.17 mg/dL; TOTAL PROTEIN [2]: 5.83 G/DL; URIC ACID [2]: 1.37 mg/dL; ABSOLUTE BASOPHIL [3]: 0 CELLS/uL; ABSOLUTE EOSINOPHIL [3]: 0 CELLS/uL; ABSOLUTE LYMPHOCYTE [3]: 13149.67 CELLS/uL; ABSOLUTE MONOCYTE [3]: 243.33 CELLS/uL; ABSOLUTE SEGMENTED NEUTROPHIL [3]: 1007 CELLS/uL; BASOPHIL [3]: 0%; EOSINOPHIL [3]: 0%; ERYTHROCYTE COUNT [3]: 5.6 x10E6/uL; HEMATOCRIT [3]: 35%; HEMOGLOBIN [3]: 14 G/DL; LEUKOCYTE COUNT [3]: 14.4 x10E3/uL; LYMPHOCYTE [3]: 91.33%; MEAN CORPUSCULAR HEMOGLOBIN [3]: 25.1 pg; MEAN CORPUSCULAR HEMOGLOBIN CONCENTRATION [3]: 40 G/DL; MEAN CORPUSCULAR VOLUME [3]: 62.67 fL; MONOCYTE [3]: 1.67%; NEUTROPHIL [3]: 7%; NUCLEATED RED BLOOD CELLS [3]: 0 /100WBC; PLATELET COUNT [3]: 1192 x10E3/uL; ALANINE AMINOTRANSFERASE [3]: 54.33 u/L; ALBUMIN [3]: 4.1 G/DL; ALKALINE PHOSPHATASE [3]: 274.67 u/L; ASPARTATE AMINOTRANSFERASE [3]: 82 u/L; BLOOD UREA NITROGEN [3]: 18.67 mg/dL; CARBON DIOXIDE [3]: 28.67 mmol/L; CHLORIDE [3]: 99.67 MEQ/L; CHOLESTEROL [3]: 72 mg/dL; CREATINE PHOSPHOKINASE [3]: 240 u/L; CREATININE [3]: 0.19 mg/dL; GLUCOSE [3]: 154.67 mg/dL; LACTATE DEHYDROGENASE [3]: 169 u/L; LIPASE [3]: 10 u/L; PHOSPHORUS [3]: 10.83 mg/dL; POTASSIUM [3]: 6.08 MEQ/L; SODIUM [3]: 143.3 MEQ/L; TOTAL BILIRUBIN [3]: 0.27 mg/dL; TOTAL PROTEIN [3]: 6 G/DL; URIC ACID [3]: 1.3 mg/dL
